What was measured:
[1] = target: human adenosine A2A receptors (Homo sapiens, UniProt P29274); experiment: in vitro binding to human adenosine A2A receptors, displacement of [3H]-CGS 21680; settings: hA2A receptors, radioligand [3H]-CGS 21680
From the text: Adenosine Receptor Binding Binding Affinities at hA2A Receptors

catalepsy = settings: cited from earlier work
Parkinsonian patients = settings: cited from earlier work

Sequence of human adenosine A2A receptors (P29274 whole entry): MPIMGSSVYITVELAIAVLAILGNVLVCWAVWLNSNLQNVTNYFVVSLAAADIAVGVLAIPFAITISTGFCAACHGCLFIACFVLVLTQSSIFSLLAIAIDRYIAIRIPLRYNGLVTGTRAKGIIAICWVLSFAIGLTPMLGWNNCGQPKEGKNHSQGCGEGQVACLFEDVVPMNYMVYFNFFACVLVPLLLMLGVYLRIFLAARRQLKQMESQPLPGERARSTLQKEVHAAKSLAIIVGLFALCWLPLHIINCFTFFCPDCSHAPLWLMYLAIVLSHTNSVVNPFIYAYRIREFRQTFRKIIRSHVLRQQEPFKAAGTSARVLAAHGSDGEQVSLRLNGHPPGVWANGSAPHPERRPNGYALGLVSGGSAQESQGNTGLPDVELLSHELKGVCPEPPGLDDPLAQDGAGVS

Row | SMILES | Ki [1] | further results
1 | OCCNc1nc(-c2ccco2)c2scc(Br)c2n1 [Example 15, 7-bromo-4-(2-furyl)-N-(2-hydroxyethyl)thieno[3,2-d]pyrimidine-2-amine] | 11 nM | melting point: 173.4 to 174.4 °C
2 | C=CCNc1nc(-c2ccco2)c2sccc2n1 [Example 40, N-allyl-4-(2-furyl)thieno[3,2-d]pyrimidine-2-amine] | 19 nM | melting point: 101 to 102 °C
3 | CN(C)c1nc(-c2nccs2)c2sccc2n1 [Example 65, N,N-dimethyl-4-(2-thiazolyl)thieno[3,2-d]pyrimidine-2-amine] | 2 nM | –
4 | CC(C)c1nc(-c2ccccn2)c2sccc2n1 [Example 70, 2-isopropyl-4-(2-pyridyl)thieno[3,2-d]pyrimidine] | 4 nM | –
5 | COCCNc1nc(-c2ccco2)c2scc(Br)c2n1 [Example 71] | 8 nM | melting point: 65 to 65.4 °C
6 | Nc1nc(-c2ccco2)c2sccc2n1 [Example 79, 4-(2-furyl)thieno[3,2-d]pyrimidine-2-amine] | 14 nM | –
7 | CCc1nc(-c2nc(C)cs2)c2sccc2n1 [Example 80, 2-ethyl-4-(4-methyl-2-thiazolyl)thieno[3,2-d]pyrimidine] | 1 nM | –
8 | CCc1nc(-c2nccs2)c2sccc2n1 [Example 82, 2-ethyl-4-(2-thiazolyl)thieno[3,2-d]pyrimidine] | 2 nM | –
9 | O=C(NCCNc1nc(-c2ccco2)c2sccc2n1)OCc1ccccc1 [Example 89, benzyl (2-(4-(2-furyl)thieno[3,2-d]pyrimidine-2-ylamino)ethyl)carbamate] | 20 nM | –
10 | Cc1cnc(-c2nc(N(C)C)nc3ccsc23)s1 [Example 104, N,N-dimethyl-4-(5-methyl-2-thiazolyl)thieno[3,2-d]pyrimidine-2-amine] | 5 nM | –
11 | Cc1nc(-c2nc(N(C)C)nc3ccsc23)sc1C [Example 105, N,N-dimethyl-4-(4,5-dimethyl-2-thiazolyl)thieno[3,2-d]pyrimidine-2-amine] | 6 nM | –
12 | Nc1nc(-c2nccs2)c2sccc2n1 [Example 110, 4-(2-thiazolyl)thieno[3,2-d]pyrimidine-2-amine] | 35 nM | –
13 | CC(C)c1nc(-c2nccs2)c2sccc2n1 [Example 113, 2-isopropyl-4-(2-thiazolyl)thieno[3,2-d]pyrimidine] | 1 nM | –
14 | CC(C)(C)c1nc(-c2nccs2)c2sccc2n1 [Example 139, 2-tert-butyl-4-(2-thiazolyl)thieno[3,2-d]pyrimidine] | 3 nM | –
15 | ClCCc1nc(-c2nccs2)c2sccc2n1 [Example 154, 2-(2-chloroethyl)-4-(2-thiazolyl)thieno[3,2-d]pyrimidine] | 6 nM | –
16 | CCCn1c(=O)c2c(nc(/C=C/c3ccc(OC)c(OC)c3)n2C)n(CCC)c1=O [KF 17837, (E)-8-(3,4-dimethoxystyryl)-1,3-dipropyl-7-methylxanthine] | – | anticataleptic effects of a subthreshold dose of L-DOPA plus benserazide (catalepsy; in vivo): potentiated; catalepsy induced by haloperidol and reserpine (catalepsy; in vivo): reduced; cataleptic responses induced by intracerebroventricular CGS 21680 (catalepsy; oral administration): significantly ameliorated
17 | Cn1c(=O)c2[nH]cnc2n(C)c1=O [theophylline, 1,3-dimethylxanthine] | – | mean objective disability scores (Parkinsonian patients; 15 Parkinsonian patients, up to 12 weeks, 150 mg/day): significant improvements; patients reporting moderate or marked subjective improvement (Parkinsonian patients; of 15 Parkinsonian patients, up to 12 weeks, 150 mg/day): 11; serum theophylline levels (Parkinsonian patients; slow release oral preparation 150 mg/day, after one week): 4.44 mg/L

Source: patent US7384949B2, “Thieno(3,2-d)pyrimidines and furano(3,2-d)pyrimidines and their use as purinergic receptor antagonists” (Vernalis Research Limited, priority 2001, dated 2008)
